Measurements: patent US7569541B2 (priority 2003, dated 2009)

Test system: P. falciparum
Details: in vivo

**Q.** How did the Antigenicity turn out when “Asn-Pro-Asn-Ala-Asn-(Apro-Asn-Ala-Asn-Pro-Asn-Ala-Asn-Pro-Asn-Glu)cyclo-Asn-Pro-Asn-Ala attached to a PE moiety [UK39]” was run?
**A.** Its Antigenicity is “excellent”.
